Results taken from US12091411B2, “IRAK degraders and uses thereof” (Kymera Therapeutics, Inc., priority 2022, dated 2024).
Like-named read-outs stand apart in the source and are kept apart here.

Target: T1, IRAK4 (Homo sapiens, UniProt Q9NWZ3)
T1 construct: Degradation of IRAK4 in OCI-LY10 was quantitatively measured using Meso Scale Discovery technology; endogenous in cells; host or cells: OCI-LY10
T1 sequence (Q9NWZ3 1-460): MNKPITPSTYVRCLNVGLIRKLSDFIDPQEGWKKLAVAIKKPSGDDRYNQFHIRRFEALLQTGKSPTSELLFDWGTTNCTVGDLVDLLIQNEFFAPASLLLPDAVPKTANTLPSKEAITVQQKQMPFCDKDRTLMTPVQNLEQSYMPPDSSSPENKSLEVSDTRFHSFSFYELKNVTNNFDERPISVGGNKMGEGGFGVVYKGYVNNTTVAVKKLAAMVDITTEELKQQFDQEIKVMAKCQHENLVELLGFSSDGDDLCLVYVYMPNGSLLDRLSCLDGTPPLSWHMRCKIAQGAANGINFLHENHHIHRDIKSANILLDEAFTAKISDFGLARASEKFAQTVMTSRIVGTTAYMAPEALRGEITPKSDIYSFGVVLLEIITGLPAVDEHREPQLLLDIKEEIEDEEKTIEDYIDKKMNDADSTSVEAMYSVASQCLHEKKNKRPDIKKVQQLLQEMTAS
Test: IRAK4 MSD Degradation in OCI-LY10
Type: cell-based
Details: OCI-LY10 cells, MSD
Procedure, shortened: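 OCI-LY10 cells exposed to 8-point 1:3 compound series (top 1 to 10 μM) for 4 to 24 h at 37 °C, 5% CO2. Lysate IRAK4 quantified by MSD sandwich immunoassay. DC50 from three-parameter logistic fit, binned A (<0.01 μM) to D (>0.2 μM or not tested).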

[1] = 4 hrs incubation, read-out: IRAK4 degradation in OCI-LY10 at 4 hrs: DC50
[2] = 24 hrs incubation, read-out: IRAK4 degradation in OCI-LY10 at 24 hrs: DC50

SMILES	DC50 [1] [nM]	DC50 [2] [nM]
CO[C@@H]1CN(c2cccc3c2n(C)c(=O)n3C2CCC(=O)NC2=O)CC[C@@H]1N(C)C[C@H]1CC[C@H](n2cc3cc(NC(=O)c4cccc(C(F)(F)F)n4)ccc3n2)CC1 (stereo partly drawn) [I-497]	> 200	> 200
CO[C@H]1CN(c2cccc3c2n(C)c(=O)n3C2CCC(=O)NC2=O)CC[C@H]1N(C)C[C@H]1CC[C@H](n2cc3cc(NC(=O)c4cccc(C(F)(F)F)n4)ccc3n2)CC1 (stereo partly drawn) [I-498]	> 200	> 200
Cn1c(=O)n(C2CCC(=O)NC2=O)c2cccc(N3CC(F)(F)C34CN(C[C@H]3CC[C@H](n5cc6cc(NC(=O)c7cccc(C(F)(F)F)n7)ccc6n5)CC3)C4)c21 (stereo partly drawn) [I-499]	> 200	> 200
Cn1c(=O)n(C2CCC(=O)NC2=O)c2cccc(N3CC4(C3)N(C[C@H]3CC[C@H](n5cc6cc(NC(=O)c7cccc(C(F)(F)F)n7)ccc6n5)CC3)CC4(F)F)c21 (stereo partly drawn) [I-500]	> 200	> 200
Cn1c(=O)n(C2CCC(=O)NC2=O)c2cccc(C#CCN3CC4(C3)N(C[C@H]3CC[C@H](n5cc(NC(=O)c6cnn7ccc(N8CCCC8)nc67)c(C(F)F)n5)CC3)CC4(F)F)c21 (stereo partly drawn) [I-501]	> 200	> 200
CN(C[C@H]1CC[C@H](n2cc(NC(=O)c3cnn4ccc(N5C[C@H]6C[C@@H]5CO6)nc34)c(C(F)F)n2)CC1)C1CCN(c2cccc3c2n(C)c(=O)n3C2CCC(=O)NC2=O)CC1(F)F (stereo partly drawn) [I-502]	> 200	> 200
CN(CC[C@H]1CC[C@H](n2cc(NC(=O)c3cnn4cccnc34)c(C(F)F)n2)CC1)C1CCN(c2cccc3c2n(C)c(=O)n3C2CCC(=O)NC2=O)CC1(F)F (stereo partly drawn) [I-503]	> 200	> 200
CN(C[C@H]1CC[C@H](n2cc(NC(=O)c3cnn4ccc(N5CCC5)nc34)c(C(F)F)n2)CC1)C1CCN(c2cccc3c2n(C)c(=O)n3C2CCC(=O)NC2=O)CC1(F)F (stereo partly drawn) [I-504]	> 200	> 200
CN(C[C@H]1CC[C@H](n2cc(NC(=O)c3cnn4ccc(N5CC(C)(C)C5)nc34)c(C(F)F)n2)CC1)C1CCN(c2cccc3c2n(C)c(=O)n3C2CCC(=O)NC2=O)CC1(F)F (stereo partly drawn) [I-505]	> 200	> 200
CN(C[C@H]1CC[C@H](n2cc(NC(=O)c3cnn4ccc(N5CC6(CC6)C5)nc34)c(C(F)F)n2)CC1)C1CCN(c2cccc3c2n(C)c(=O)n3C2CCC(=O)NC2=O)CC1(F)F (stereo partly drawn) [I-506]	> 200	> 200
CN(C[C@H]1CC[C@H](n2cc(NC(=O)c3cnn4ccc(N5CC(F)(F)C5)nc34)c(C(F)F)n2)CC1)C1CCN(c2cccc3c2n(C)c(=O)n3C2CCC(=O)NC2=O)CC1(F)F (stereo partly drawn) [I-507]	> 200	> 200
CN(C[C@H]1CC[C@H](n2cc(NC(=O)c3cnn4ccc(N5CC(O)C5)nc34)c(C(F)F)n2)CC1)C1CCN(c2cccc3c2n(C)c(=O)n3C2CCC(=O)NC2=O)CC1(F)F (stereo partly drawn) [I-508]	> 200	> 200
CN(C[C@H]1CC[C@H](n2cc(NC(=O)c3cnn4ccc(N5CC6(COC6)C5)nc34)c(C(F)F)n2)CC1)C1CCN(c2cccc3c2n(C)c(=O)n3C2CCC(=O)NC2=O)CC1(F)F (stereo partly drawn) [I-509]	> 200	10 to 100
CN(C[C@H]1CC[C@H](n2cc(NC(=O)c3cnn4ccc(N5CC6(CCCOC6)C5)nc34)c(C(F)F)n2)CC1)C1CCN(c2cccc3c2n(C)c(=O)n3C2CCC(=O)NC2=O)CC1(F)F (stereo partly drawn) [I-510]	> 200	10 to 100
CN(C[C@H]1CC[C@H](n2cc(NC(=O)c3cnn4ccc(N5CC6(CCOCC6)C5)nc34)c(C(F)F)n2)CC1)C1CCN(c2cccc3c2n(C)c(=O)n3C2CCC(=O)NC2=O)CC1(F)F (stereo partly drawn) [I-511]	> 200	10 to 100
CN(C[C@H]1CC[C@H](n2cc(NC(=O)c3cnn4ccc(N5CCCC5)nc34)c(C(F)F)n2)CC1)C1CCN(c2cccc3c2n(C)c(=O)n3C2CCC(=O)NC2=O)CC1(F)F (stereo partly drawn) [I-512]	> 200	10 to 100
CN(C[C@H]1CC[C@H](n2cc(NC(=O)c3cnn4ccc(N5CCCC5(C)C)nc34)c(C(F)F)n2)CC1)C1CCN(c2cccc3c2n(C)c(=O)n3C2CCC(=O)NC2=O)CC1(F)F (stereo partly drawn) [I-513]	> 200	> 200
CN(C[C@H]1CC[C@H](n2cc(NC(=O)c3cnn4ccc(N5CCCC56CC6)nc34)c(C(F)F)n2)CC1)C1CCN(c2cccc3c2n(C)c(=O)n3C2CCC(=O)NC2=O)CC1(F)F (stereo partly drawn) [I-514]	> 200	> 200
CN(C[C@H]1CC[C@H](n2cc(NC(=O)c3cnn4ccc(N5CCCCC5)nc34)c(C(F)F)n2)CC1)C1CCN(c2cccc3c2n(C)c(=O)n3C2CCC(=O)NC2=O)CC1(F)F (stereo partly drawn) [I-515]	> 200	10 to 100
CN(C[C@H]1CC[C@H](n2cc(NC(=O)c3cnn4ccc(N5CCC(C)(C)CC5)nc34)c(C(F)F)n2)CC1)C1CCN(c2cccc3c2n(C)c(=O)n3C2CCC(=O)NC2=O)CC1(F)F (stereo partly drawn) [I-516]	> 200	> 200
CN(C[C@H]1CC[C@H](n2cc(NC(=O)c3cnn4ccc(N5CCCC(C)(C)C5)nc34)c(C(F)F)n2)CC1)C1CCN(c2cccc3c2n(C)c(=O)n3C2CCC(=O)NC2=O)CC1(F)F (stereo partly drawn) [I-517]	> 200	> 200
CN(C[C@H]1CC[C@H](n2cc(NC(=O)c3cnn4ccc(N5CCCCC5(C)C)nc34)c(C(F)F)n2)CC1)C1CCN(c2cccc3c2n(C)c(=O)n3C2CCC(=O)NC2=O)CC1(F)F (stereo partly drawn) [I-518]	> 200	> 200
CN(C[C@H]1CC[C@H](n2cc(NC(=O)c3cnn4ccc(N5CCC(F)(F)CC5)nc34)c(C(F)F)n2)CC1)C1CCN(c2cccc3c2n(C)c(=O)n3C2CCC(=O)NC2=O)CC1(F)F (stereo partly drawn) [I-519]	> 200	> 200
CC1CCN(c2ccn3ncc(C(=O)Nc4cn([C@H]5CC[C@H](CN(C)C6CCN(c7cccc8c7n(C)c(=O)n8C7CCC(=O)NC7=O)CC6(F)F)CC5)nc4C(F)F)c3n2)CC1 (stereo partly drawn) [I-520]	> 200	> 200
CN(C[C@H]1CC[C@H](n2cc(NC(=O)c3cnn4ccc(N5CCC6(CC5)CC6)nc34)c(C(F)F)n2)CC1)C1CCN(c2cccc3c2n(C)c(=O)n3C2CCC(=O)NC2=O)CC1(F)F (stereo partly drawn) [I-521]	> 200	> 200
CN(C[C@H]1CC[C@H](n2cc(NC(=O)c3cnn4ccc(N5CCOCC5)nc34)c(C(F)F)n2)CC1)C1CCN(c2cccc3c2n(C)c(=O)n3C2CCC(=O)NC2=O)CC1(F)F (stereo partly drawn) [I-522]	> 200	10 to 100
CN(C[C@H]1CC[C@H](n2cc(NC(=O)c3cnn4ccc(N5C[C@@H]6C[C@H]5CO6)nc34)c(C(F)F)n2)CC1)C1CCN(c2cccc3c2n(C)c(=O)n3C2CCC(=O)NC2=O)CC1(F)F (stereo partly drawn) [I-523]	> 200	10 to 100
CN(C[C@H]1CC[C@H](n2cc(NC(=O)c3cnn4ccc(N5C6COCC5C6)nc34)c(C(F)F)n2)CC1)C1CCN(c2cccc3c2n(C)c(=O)n3C2CCC(=O)NC2=O)CC1(F)F (stereo partly drawn) [I-524]	> 200	10 to 100
CN(C[C@H]1CC[C@H](n2cc(NC(=O)c3cnn4ccc(N5CC6CC(C5)O6)nc34)c(C(F)F)n2)CC1)C1CCN(c2cccc3c2n(C)c(=O)n3C2CCC(=O)NC2=O)CC1(F)F (stereo partly drawn) [I-525]	> 200	< 10
CN(C[C@H]1CC[C@H](n2cc(NC(=O)c3cnn4ccc(N5CC6CCC(C5)O6)nc34)c(C(F)F)n2)CC1)C1CCN(c2cccc3c2n(C)c(=O)n3C2CCC(=O)NC2=O)CC1(F)F (stereo partly drawn) [I-526]	> 200	10 to 100
